Legend:
[1] = tested on: ACE2 translocation to the cell surface of CD14+ monocytes; assay: Flow cytometry of ACE2 surface expression in PBMCs pre-treated with ES2 before R848 or LPS; format: cell-based, human; conditions: PBMCs pre-treated with ES2 1-2 h, then R848 or LPS 4 h
Method: Bars represent mean±SEM of biologically independent samples, (n=3/group for 40 μM ES2 condition; n=4/group for all other conditions).
For ex vivo stimulation assays analyzed by flow cytometry, fresh PBMCs were isolated from CPT tubes using a standard protocol. Briefly, whole blood cells were diluted with Ca^2+-free and Mg^2+-free PBS buffer (Corning, NY) containing 2% fetal bovine serum (FBS, R&D Systems, Minneapolis, MN) and 2 mM EDTA (VWR Life Science, Radnor, PA) and slowly overlaid onto Ficoll-Paque™ (GE healthcare, Chicago, IL) at 2:1 ratio by volume. The samples were centrifuged at RT for 20 min at 800×g with no braking. Next, the mononuclear cell layer at the plasma-Ficoll interface was moved into a new 50 ml tube and washed with PBS buffer and red blood cell lysis buffer at RT for 5 min. The isolated PBMCs were used on the day of isolation or placed at −80° C. for storage. Two million fresh or thawed PBMCs were transferred to each well of a round-bottom 96-well culture plate (Thermo Fisher Scientific) in 200 μL of RPMI medium containing 10% FBS. The thawed PBMCs were recovered for 2 h at 37° C. with 5% C02. […]
Flow cytometry methods. […] All data were analyzed using FlowJo 10.5.3 (BO Biosciences). […]

Hela cells = conditions: cited from earlier work
PBMCs = assay: Flow cytometry of ACE2 and TMPRSS2 cell surface expression in PBMCs stimulated ex vivo; format: cell-based, human; conditions: mean±SEM
Method: Mouse IgG1 antibodies were used as the isotype controls.
PBMCs were ex vivo cultured with R848, LPS or medium alone for 4 hrs, 24 hrs, and 48 hrs. Representative flow cytometric analysis of surface expression of ACE2 and TMPRSS2 in cDC.
PBMCs were ex vivo cultured with PMA plus ionomycin for 4 h. Representative flow cytometric analysis of surface expression of TMPRSS2 in CD4+, CD8+ and total T cells.
For ex vivo stimulation assays analyzed by flow cytometry, fresh PBMCs were isolated from CPT tubes using a standard protocol. Briefly, whole blood cells were diluted with Ca^2+-free and Mg^2+-free PBS buffer (Corning, NY) containing 2% fetal bovine serum (FBS, R&D Systems, Minneapolis, MN) and 2 mM EDTA (VWR Life Science, Radnor, PA) and slowly overlaid onto Ficoll-Paque™ (GE healthcare, Chicago, IL) at 2:1 ratio by volume. The samples were centrifuged at RT for 20 min at 800×g with no braking. Next, the mononuclear cell layer at the plasma-Ficoll interface was moved into a new 50 ml tube and washed with PBS buffer and red blood cell lysis buffer at RT for 5 min. The isolated PBMCs were used on the day of isolation or placed at −80° C. for storage. Two million fresh or thawed PBMCs were transferred to each well of a round-bottom 96-well culture plate (Thermo Fisher Scientific) in 200 μL of RPMI medium containing 10% FBS. The thawed PBMCs were recovered for 2 h at 37° C. with 5% C02. In some experiments, PBMCs were treated with different concentrations of ES2 (Sigma Aldrich) or 0.25% DMSO (the vehicle for ES2 at the highest concentration; ATCC, Manassas, VA) for 1-2 h during recovery stage. The fresh and recovered cells were then cultured with 1 μg/ml R848, LPS, or medium alone for 4 h. For TCR-independent T cell stimulation, PBMCs were cultured in RPMI medium containing 10% FBS in the presence of phorbol 12-myristate 13-acetate (PMA) (50 ng/ml) and ionomycin (1 μM) for a total of 4 h at 37° C. After incubation, the cells were washed with wash buffer in PBS containing 2% FBS and 1 mM EDTA prior to staining.
Flow cytometry methods. Single-cell suspensions were centrifuged at 450×g for 7 min, resuspended in ice-cold staining buffer (1×PBS with 2% FBS), and placed in a 96-well round-bottom plate (Thermo Fisher Scientific). After incubation with human Fe receptor blocking solution (Biolegend, San Diego, CA) at 4° C. for 15 min, cells were stained with a mixture of fluorescent surface antibodies at 4° C. for 30 min. For intracellular staining, the cells were fixed with IC Fixation Buffer (eBiosciences™, Thermo Fisher Scientific) at 4° C. for 30 min followed by incubation with fluorescent intracellular antibody cocktail in 1× Intracellular Fixation & Permeabilization Buffer (eBiosciences™, Thermo Fisher Scientific) at 4° C. for 30 min. The full list of fluorescent antibodies used is in Table 1 below. DAPI was added to the unfixed cells with surface staining at a final concentration of 1 μg/ml immediately before sample acquisition. The stained samples were then acquired on a FACSCelesta™ flow cytometer (BO Biosciences) using BO FACSDiva software version 8.0.2 (BO Biosciences). All data were analyzed using FlowJo 10.5.3 (BO Biosciences).
Methods. Flow cytometry and qRT-PCR were utilized as described in Example 1.

blood myeloid cells = assay: Mass cytometry (CyTOF) of surface ACE2 in whole blood myeloid cells stimulated ex vivo with R848; format: cell-based, human; conditions: 4 h ex vivo, COVID-19 patients and healthy controls, mean±SEM

Compound | rapid translocation of ACE2 to the monocyte cell surface [1] | recycling of endocytosed transferrin to the plasma membrane (Hela cells) | ACE2+ TMPRSS2+ cDCs (PBMCs) | cell surface ACE2 localization in cDCs (PBMCs) | surface expression of TMPRSS2 in cDCs (PBMCs) | surface expression of ACE2 in CD14+ classic monocytes (blood myeloid cells) [%]
COc1cc(/C=N/NC(=O)c2cccc(F)c2)cc(I)c1O [ES2, 3-fluoro-benzoic acid, (2E)-2-[(4-hydroxy-3-iodo-5-methoxyphenyl)methylene]hydrazide] | blocked | inhibits | – | – | – | –
CCOCc1nc2c(N)nc3ccccc3c2n1CC(C)(C)O [R848, resiquimod] | – | – | 1.1%±0.21 | 8.9%±0.98 | 3.2%±0.87 | 11.0±2.7
lipopolysaccharide [LPS] | – | – | 1.1%±0.21 | 8.9%±0.98 | 3.2%±0.87 | –
